According to paper PMC3118852 (Chemical research in toxicology, 2011):

Columns and labels:
[1] = target: human AChE (Homo sapiens, UniProt P22303); assay type: biochemical
[2] = target: CBDP-phosphonylated BChE (Homo sapiens, UniProt P06276); assay type: biochemical; conditions: pH 8
[3] = target: CBDP-phosphonylated AChE (Homo sapiens, UniProt P22303); assay type: biochemical; conditions: pH 8
[4] = target: T1, human BChE (Homo sapiens, UniProt P06276)
[5] = pH 8
[6] = system: rat brain AChE; conditions: pH 7.4; cited from earlier work
[7] = system: recombinant human AChE; conditions: pH 8; cited from earlier work
[8] = target: T1, human BChE; conditions: pH 8; cited from earlier work
[9] = system: paraoxonase 1; conditions: cited from earlier work
[10] = target: BChE; conditions: cited from earlier work

T1 sequence (P06276 29-602): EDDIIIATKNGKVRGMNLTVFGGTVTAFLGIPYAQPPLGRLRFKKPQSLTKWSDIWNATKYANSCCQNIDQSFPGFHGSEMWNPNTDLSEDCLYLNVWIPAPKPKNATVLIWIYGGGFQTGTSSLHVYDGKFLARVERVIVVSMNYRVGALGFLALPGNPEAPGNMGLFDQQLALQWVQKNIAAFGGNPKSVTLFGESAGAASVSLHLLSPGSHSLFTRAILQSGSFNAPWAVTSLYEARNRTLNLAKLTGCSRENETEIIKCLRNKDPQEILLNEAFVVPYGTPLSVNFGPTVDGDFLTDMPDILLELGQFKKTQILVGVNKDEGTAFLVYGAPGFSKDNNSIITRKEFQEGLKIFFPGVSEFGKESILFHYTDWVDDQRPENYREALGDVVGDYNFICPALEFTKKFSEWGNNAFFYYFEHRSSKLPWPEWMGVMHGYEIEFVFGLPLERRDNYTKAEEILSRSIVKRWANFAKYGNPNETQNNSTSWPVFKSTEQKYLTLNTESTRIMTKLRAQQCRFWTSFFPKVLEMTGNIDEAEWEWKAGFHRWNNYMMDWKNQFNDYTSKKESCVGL
human AChE, sequence (P22303 32-614): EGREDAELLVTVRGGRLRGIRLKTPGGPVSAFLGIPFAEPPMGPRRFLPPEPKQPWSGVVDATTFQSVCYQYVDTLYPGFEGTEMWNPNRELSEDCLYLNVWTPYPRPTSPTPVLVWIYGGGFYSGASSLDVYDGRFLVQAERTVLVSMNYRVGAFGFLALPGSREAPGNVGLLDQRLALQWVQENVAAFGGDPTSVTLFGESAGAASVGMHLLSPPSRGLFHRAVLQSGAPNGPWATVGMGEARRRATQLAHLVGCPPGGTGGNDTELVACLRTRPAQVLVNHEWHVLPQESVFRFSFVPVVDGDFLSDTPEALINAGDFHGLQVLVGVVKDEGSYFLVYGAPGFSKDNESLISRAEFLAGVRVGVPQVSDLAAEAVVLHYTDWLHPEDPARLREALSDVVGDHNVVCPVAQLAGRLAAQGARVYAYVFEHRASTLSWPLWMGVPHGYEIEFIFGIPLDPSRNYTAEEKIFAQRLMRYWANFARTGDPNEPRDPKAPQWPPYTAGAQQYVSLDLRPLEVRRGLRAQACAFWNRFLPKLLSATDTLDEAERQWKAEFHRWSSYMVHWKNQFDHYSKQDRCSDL
CBDP-phosphonylated BChE, sequence (P06276 29-602): as the sequence (P06276 29-602) above
CBDP-phosphonylated AChE, sequence (P22303 32-614): as the sequence (P22303 32-614) above

| Molecule | K'I, dissociation constant of the Michaelis complex, AChE form E′ [1] [µM] | kobs, fast phase of inhibition (independent of CBDP concentration) [1] [min⁻¹] | Ki ([1]; read-out: KI, dissociation constant of the Michaelis complex, AChE form E) [nM] | time to loss of reactivatibility (aging) following inhibition [2] | time to loss of reactivatibility (aging) following inhibition [3] | K'I, dissociation constant of the Michaelis complex, BChE form E′ [4] [nM] | ki values for BChE (both forms) [4] | slow phase reactivity of hBChE (form E′) relative to hAChE (form E′) [4] [fold] | kp, phosphorylation rate constant, BChE form E (kp=ki.KI) ([4]; human) [min⁻¹] | Ki ([4]; read-out: KI, dissociation constant of the Michaelis complex, BChE form E) [nM] | hydrolysis rate [5] [min⁻¹] | bimolecular rate constant of inhibition [6] [M⁻¹ min⁻¹] | bimolecular rate constant of inhibition [7] [M⁻¹ min⁻¹] | bimolecular rate constant of inhibition [8] [M⁻¹ min⁻¹] | reaction with paraoxonase 1 [9] | ki, reactivity with BChE [10] [M⁻¹ min⁻¹] |
| --- | --- | --- | --- | --- | --- | --- | --- | --- | --- | --- | --- | --- | --- | --- | --- | --- |
| Cc1ccccc1OP1(=O)OCc2ccccc2O1 (centres unmarked) [CBDP, 2-(o-cresyl)-4H-1,3,2-benzodioxaphosphoran-2-one] | > 5.5 | 0.37 ± 0.15 | < 100 | less than 15 s | less than 15 s | > 10 | 10^7–10^8 M^−1 min^−1 | 235±110 | > 1.5 | > 10 | 0.0126 | 1100 | 2100 | 20000 | does not react | – |
| CCOP(=O)(OCC)Oc1cc(C)nc(C(C)C)n1 [diazoxon] | – | – | – | – | – | – | – | – | – | – | – | – | – | – | – | 7.7e+07 |
| chlorpyrifos-oxon | – | – | – | – | – | – | – | – | – | – | – | – | – | – | – | 1.7e+09 |
